Results reported in PubChem BioAssay (NCI).
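1) Cells in 96-well plates. 2) Compound, 48 h, 5 concentrations. 3) Linear interpolation between surrounding doses. 4) Unreached endpoint = highest concentration. GI50 = concentration required for 50% inhibition of growth. TGI marks complete inhibition of growth.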

Legend:
Experiment in all cases: NCI anticancer screen, dose series, 48 h
[1] = tested on: CCRF-CEM leukemia
[2] = tested on: COLO 205 colon
[3] = tested on: HCT-116 colon
[4] = tested on: K-562 leukemia
[5] = tested on: LOX IMVI melanoma
[6] = tested on: MDA-MB-231 breast
[7] = tested on: OVCAR-3 ovarian
[8] = tested on: RPMI-8226 leukemia
[9] = tested on: SN12C renal
[10] = tested on: UO-31 renal

SMILES	GI50 [1] [µM]	TGI [1] [µM]	GI50 [2] [µM]	TGI [2] [µM]	GI50 [3] [µM]	TGI [3] [µM]	GI50 [4] [µM]	TGI [4] [µM]	GI50 [5] [µM]	TGI [5] [µM]	GI50 [6] [µM]	TGI [6] [µM]	GI50 [7] [µM]	TGI [7] [µM]	GI50 [8] [µM]	TGI [8] [µM]	GI50 [9] [µM]	TGI [9] [µM]	GI50 [10] [µM]	TGI [10] [µM]
COc1cc2ncn(-c3cc(OCc4ccccc4C(F)(F)F)c(C(N)=O)s3)c2cc1OC	0.0841	> 25	0.117	> 25	0.246	> 25	0.137	> 25	0.139	> 25	0.27	> 25	0.0838	0.794	0.278	> 25	2.67	> 25	> 18.4	> 25
O=C(/C=C/c1ccc(O)c(O)c1)N1CCN(c2ccc(Cl)cc2)CC1	1.96	45.1	5.11	19.7	5.18	19.8	4.77	58.7	7.35	21.6	5.28	35.6			2.87	29.7	4.11	42.2	2.08	20.1
C=C1C(=O)OC2CC(C)C(/C=C/C(C)=O)=CCC12 (centres undefined)		> 100		> 100		> 100		> 100		> 100		> 100		> 100		> 100		> 100		
CCCC1C[C@H]2CCCCN2[C@H]2CCCN12 (some centres undefined)		> 68.6		> 83.4		> 66.2		> 88.4		> 55				> 100		> 63.9		> 100		> 100
CC(C)(C)N/N=C(/Cc1nc2c3c(ccc2[nH]c1=O)C(=O)c1ccccc1C3=O)C(=O)NC1=C(Cl)C(=O)c2ccccc2C1=O		> 100		89.5		> 100		> 100		> 100				> 100		> 100		> 100		> 100
C[N+](C)(C)CC1CCC(C[N+](C)(C)C)C1=NO (centres undefined)		> 100		> 100		> 100		> 100		> 100				> 100		> 100		> 100		> 100
CCc1ccc2c(c1)C(=O)c1c-2n(CCCN)c(=O)c2cc(OC)c(OC)cc12	1.1	2.48					0.306	0.907	1.36	2.73	1.63	3.14	1.51	2.89	1.41	3.02	1.73	3.33	1.74	3.32
COc1cc(C2CC(c3ccccc3)=NN2C=O)ccc1Oc1ccnc2cc(Cl)ccc12 (centres undefined)			> 100	> 100	6.07	> 100			> 100	> 100	28.5	> 100	18.6	> 100			> 100	> 100	13.5	> 100
